Test results published in the supplement of paper PMC10307832.

Experiments:
Experiment in all cases: relative viability (nuclei count vs DMSO), 5 days (fraction); higher = more cells survive
Linsitinib + Palbociclib = compound: C[C@]1(O)C[C@@H](c2nc(-c3ccc4ccc(-c5ccccc5)nc4c3)c3c(N)nccn32)C1 [Linsitinib] + CC(=O)c1c(C)c2cnc(Nc3ccc(N4CCNCC4)cn3)nc2n(C2CCCC2)c1=O [Palbociclib] (partner 0.5 µM)
Summary of the method: (§1)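 Relative viability is defined as nuclei in treated wells over nuclei in vehicle wells. Duplicate plates were run and medians reported. Lung cancer cell lines in 1536-well plates were dosed by pin tool one day after seeding, with one drug or with a fixed anchor-drug dose plus five library-drug doses (not always all listed) in √10 steps, and nuclei were counted after 5 days.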

Ispinesib + Vorinostat = compound: Cc1ccc(C(=O)N(CCCN)[C@@H](c2nc3cc(Cl)ccc3c(=O)n2Cc2ccccc2)C(C)C)cc1 [Ispinesib] + O=C(CCCCCCC(=O)Nc1ccccc1)NO [Vorinostat] (partner 1 µM)
Summary of the method: as §1

Ispinesib + Pemetrexed = compound: Cc1ccc(C(=O)N(CCCN)[C@@H](c2nc3cc(Cl)ccc3c(=O)n2Cc2ccccc2)C(C)C)cc1 [Ispinesib] + Nc1nc2[nH]cc(CCc3ccc(C(=O)N[C@@H](CCC(=O)O)C(=O)O)cc3)c2c(=O)[nH]1 [Pemetrexed] (partner 0.2 µM)
Summary of the method: as §1

Linsitinib + Alpelisib = compound: C[C@]1(O)C[C@@H](c2nc(-c3ccc4ccc(-c5ccccc5)nc4c3)c3c(N)nccn32)C1 [Linsitinib] + Cc1nc(NC(=O)N2CCC[C@H]2C(N)=O)sc1-c1ccnc(C(C)(C)C(F)(F)F)c1 [Alpelisib] (partner 2 µM)
Summary of the method: as §1

## NCI-H1648
Linsitinib + Palbociclib; first compound 0.01 µM
  relative viability: 0.238
Linsitinib + Palbociclib; first compound 0.03162 µM
  relative viability: 0.304
Linsitinib + Palbociclib; first compound 0.1 µM
  relative viability: 0.252
Linsitinib + Palbociclib; first compound 0.3162 µM
  relative viability: 0.279
Linsitinib + Palbociclib; first compound 1 µM
  relative viability: 0.212
Ispinesib + Vorinostat; first compound 0.001 µM
  relative viability: 0.594
Ispinesib + Vorinostat; first compound 0.003162 µM
  relative viability: 0.682
Ispinesib + Vorinostat; first compound 0.01 µM
  relative viability: 0.422
Ispinesib + Vorinostat; first compound 0.03162 µM
  relative viability: 0.634
Ispinesib + Vorinostat; first compound 0.1 µM
  relative viability: 0.428
Ispinesib + Pemetrexed; first compound 0.001 µM
  relative viability: 0.92
Ispinesib + Pemetrexed; first compound 0.003162 µM
  relative viability: 0.723
Ispinesib + Pemetrexed; first compound 0.01 µM
  relative viability: 0.802
Ispinesib + Pemetrexed; first compound 0.03162 µM
  relative viability: 0.751
Ispinesib + Pemetrexed; first compound 0.1 µM
  relative viability: 0.305

## IA-LM
Ispinesib + Vorinostat; first compound 0.001 µM
  relative viability: 0.889
Ispinesib + Vorinostat; first compound 0.003162 µM
  relative viability: 0.863
Ispinesib + Vorinostat; first compound 0.01 µM
  relative viability: 1.01
Ispinesib + Vorinostat; first compound 0.03162 µM
  relative viability: 1.23
Ispinesib + Vorinostat; first compound 0.1 µM
  relative viability: 0.369
Linsitinib + Alpelisib; first compound 0.01 µM
  relative viability: 0.829
Linsitinib + Alpelisib; first compound 0.03162 µM
  relative viability: 0.809
Linsitinib + Alpelisib; first compound 0.1 µM
  relative viability: 0.743
Linsitinib + Alpelisib; first compound 0.3162 µM
  relative viability: 0.387
Linsitinib + Alpelisib; first compound 1 µM
  relative viability: 0.51

## ABC-1
Linsitinib + Palbociclib; first compound 0.01 µM
  relative viability: 0.793
Linsitinib + Palbociclib; first compound 0.03162 µM
  relative viability: 0.537
Linsitinib + Palbociclib; first compound 0.1 µM
  relative viability: 0.627
Linsitinib + Palbociclib; first compound 0.3162 µM
  relative viability: 0.428
Linsitinib + Palbociclib; first compound 1 µM
  relative viability: 0.425
Ispinesib + Vorinostat; first compound 0.001 µM
  relative viability: 1.14
Ispinesib + Vorinostat; first compound 0.003162 µM
  relative viability: 1.3
Ispinesib + Vorinostat; first compound 0.01 µM
  relative viability: 1.05
Ispinesib + Vorinostat; first compound 0.1 µM
  relative viability: 0.548
Linsitinib + Alpelisib; first compound 0.01 µM
  relative viability: 0.925
Linsitinib + Alpelisib; first compound 0.03162 µM
  relative viability: 0.726
Linsitinib + Alpelisib; first compound 0.1 µM
  relative viability: 0.912
Linsitinib + Alpelisib; first compound 0.3162 µM
  relative viability: 0.76
Linsitinib + Alpelisib; first compound 1 µM
  relative viability: 0.719

## EBC-1
Linsitinib + Alpelisib; first compound 0.01 µM
  relative viability: 0.758
Linsitinib + Alpelisib; first compound 0.03162 µM
  relative viability: 0.841
Linsitinib + Alpelisib; first compound 0.1 µM
  relative viability: 1.05
Linsitinib + Alpelisib; first compound 0.3162 µM
  relative viability: 0.601
Linsitinib + Alpelisib; first compound 1 µM
  relative viability: 0.814

## ChaGo-K-1
Linsitinib + Palbociclib; first compound 0.01 µM
  relative viability: 0.926
Linsitinib + Palbociclib; first compound 0.03162 µM
  relative viability: 0.897
Linsitinib + Palbociclib; first compound 0.1 µM
  relative viability: 0.974
Linsitinib + Palbociclib; first compound 1 µM
  relative viability: 0.978
Ispinesib + Vorinostat; first compound 0.001 µM
  relative viability: 0.838
Ispinesib + Vorinostat; first compound 0.003162 µM
  relative viability: 0.744
Ispinesib + Vorinostat; first compound 0.01 µM
  relative viability: 0.827
Ispinesib + Vorinostat; first compound 0.03162 µM
  relative viability: 0.765
Ispinesib + Vorinostat; first compound 0.1 µM
  relative viability: 0.232
Ispinesib + Pemetrexed; first compound 0.001 µM
  relative viability: 0.248
Ispinesib + Pemetrexed; first compound 0.003162 µM
  relative viability: 0.274
Ispinesib + Pemetrexed; first compound 0.01 µM
  relative viability: 0.26
Ispinesib + Pemetrexed; first compound 0.03162 µM
  relative viability: 0.256
Ispinesib + Pemetrexed; first compound 0.1 µM
  relative viability: 0.154

## NCI-H727
Linsitinib + Palbociclib; first compound 0.01 µM
  relative viability: 0.708
Linsitinib + Palbociclib; first compound 0.03162 µM
  relative viability: 0.719
Linsitinib + Palbociclib; first compound 0.1 µM
  relative viability: 0.63
Linsitinib + Palbociclib; first compound 0.3162 µM
  relative viability: 0.553
Linsitinib + Palbociclib; first compound 1 µM
  relative viability: 0.554
Ispinesib + Vorinostat; first compound 0.001 µM
  relative viability: 1.24
Ispinesib + Vorinostat; first compound 0.003162 µM
  relative viability: 1.31
Ispinesib + Vorinostat; first compound 0.03162 µM
  relative viability: 1.05
Ispinesib + Vorinostat; first compound 0.1 µM
  relative viability: 1.06
Linsitinib + Alpelisib; first compound 0.01 µM
  relative viability: 0.489
Linsitinib + Alpelisib; first compound 0.03162 µM
  relative viability: 0.394
Linsitinib + Alpelisib; first compound 0.1 µM
  relative viability: 0.564
Linsitinib + Alpelisib; first compound 0.3162 µM
  relative viability: 0.378
Linsitinib + Alpelisib; first compound 1 µM
  relative viability: 0.278

## A549
Linsitinib + Alpelisib; first compound 0.01 µM
  relative viability: 0.744
Linsitinib + Alpelisib; first compound 0.03162 µM
  relative viability: 0.668
Linsitinib + Alpelisib; first compound 0.1 µM
  relative viability: 0.634
Linsitinib + Alpelisib; first compound 0.3162 µM
  relative viability: 0.423
Linsitinib + Alpelisib; first compound 1 µM
  relative viability: 0.421

## NCI-H1563
Linsitinib + Alpelisib; first compound 0.01 µM
  relative viability: 0.909
Linsitinib + Alpelisib; first compound 0.03162 µM
  relative viability: 0.924
Linsitinib + Alpelisib; first compound 0.1 µM
  relative viability: 0.85
Linsitinib + Alpelisib; first compound 0.3162 µM
  relative viability: 0.861
Linsitinib + Alpelisib; first compound 1 µM
  relative viability: 0.928
Ispinesib + Pemetrexed; first compound 0.001 µM
  relative viability: 0.849
Ispinesib + Pemetrexed; first compound 0.003162 µM
  relative viability: 0.859
Ispinesib + Pemetrexed; first compound 0.01 µM
  relative viability: 0.743
Ispinesib + Pemetrexed; first compound 0.03162 µM
  relative viability: 0.771
Ispinesib + Pemetrexed; first compound 0.1 µM
  relative viability: 0.661

## NCI-H1703
Linsitinib + Alpelisib; first compound 0.01 µM
  relative viability: 0.363
Linsitinib + Alpelisib; first compound 0.1 µM
  relative viability: 0.346
Linsitinib + Alpelisib; first compound 0.3162 µM
  relative viability: 0.227
Linsitinib + Alpelisib; first compound 1 µM
  relative viability: 0.219

## NCI-H1299
Linsitinib + Alpelisib; first compound 0.01 µM
  relative viability: 1.05
Linsitinib + Alpelisib; first compound 0.03162 µM
  relative viability: 1.07
Linsitinib + Alpelisib; first compound 0.1 µM
  relative viability: 1.12
Linsitinib + Alpelisib; first compound 0.3162 µM
  relative viability: 1.01
Linsitinib + Alpelisib; first compound 1 µM
  relative viability: 1.04

## NCI-H2342
Linsitinib + Palbociclib; first compound 0.01 µM
  relative viability: 0.677
Linsitinib + Palbociclib; first compound 0.03162 µM
  relative viability: 0.524
Linsitinib + Palbociclib; first compound 0.1 µM
  relative viability: 0.521
Linsitinib + Palbociclib; first compound 0.3162 µM
  relative viability: 0.531
Linsitinib + Palbociclib; first compound 1 µM
  relative viability: 0.54
Ispinesib + Vorinostat; first compound 0.001 µM
  relative viability: 0.664
Ispinesib + Vorinostat; first compound 0.003162 µM
  relative viability: 0.724
Ispinesib + Vorinostat; first compound 0.01 µM
  relative viability: 0.797
Ispinesib + Vorinostat; first compound 0.03162 µM
  relative viability: 0.75
Ispinesib + Vorinostat; first compound 0.1 µM
  relative viability: 0.554
Ispinesib + Pemetrexed; first compound 0.001 µM
  relative viability: 0.772
Ispinesib + Pemetrexed; first compound 0.003162 µM
  relative viability: 0.813
Ispinesib + Pemetrexed; first compound 0.01 µM
  relative viability: 0.924
Ispinesib + Pemetrexed; first compound 0.03162 µM
  relative viability: 0.751
Ispinesib + Pemetrexed; first compound 0.1 µM
  relative viability: 0.468

## SW 900
Linsitinib + Palbociclib; first compound 0.01 µM
  relative viability: 0.506
Linsitinib + Palbociclib; first compound 0.03162 µM
  relative viability: 0.544
Linsitinib + Palbociclib; first compound 0.1 µM
  relative viability: 0.534
Linsitinib + Palbociclib; first compound 0.3162 µM
  relative viability: 0.476
Linsitinib + Palbociclib; first compound 1 µM
  relative viability: 0.505
Ispinesib + Vorinostat; first compound 0.001 µM
  relative viability: 0.523
Ispinesib + Vorinostat; first compound 0.003162 µM
  relative viability: 0.606
Ispinesib + Vorinostat; first compound 0.01 µM
  relative viability: 0.478
Ispinesib + Vorinostat; first compound 0.03162 µM
  relative viability: 0.449
Ispinesib + Vorinostat; first compound 0.1 µM
  relative viability: 0.294
Ispinesib + Pemetrexed; first compound 0.001 µM
  relative viability: 0.482
Ispinesib + Pemetrexed; first compound 0.003162 µM
  relative viability: 0.516
Ispinesib + Pemetrexed; first compound 0.01 µM
  relative viability: 0.525
Ispinesib + Pemetrexed; first compound 0.03162 µM
  relative viability: 0.469
Ispinesib + Pemetrexed; first compound 0.1 µM
  relative viability: 0.189

## NCI-H596
Ispinesib + Vorinostat; first compound 0.001 µM
  relative viability: 0.58
Ispinesib + Vorinostat; first compound 0.003162 µM
  relative viability: 0.741
Ispinesib + Vorinostat; first compound 0.01 µM
  relative viability: 0.642
Ispinesib + Vorinostat; first compound 0.03162 µM
  relative viability: 0.609
Ispinesib + Vorinostat; first compound 0.1 µM
  relative viability: 0.35
Linsitinib + Alpelisib; first compound 0.01 µM
  relative viability: 0.508
Linsitinib + Alpelisib; first compound 0.03162 µM
  relative viability: 0.532
Linsitinib + Alpelisib; first compound 0.1 µM
  relative viability: 0.406
Linsitinib + Alpelisib; first compound 0.3162 µM
  relative viability: 0.418
Linsitinib + Alpelisib; first compound 1 µM
  relative viability: 0.443
Ispinesib + Pemetrexed; first compound 0.001 µM
  relative viability: 0.502
Ispinesib + Pemetrexed; first compound 0.003162 µM
  relative viability: 0.51
Ispinesib + Pemetrexed; first compound 0.01 µM
  relative viability: 0.578
Ispinesib + Pemetrexed; first compound 0.03162 µM
  relative viability: 0.52
Ispinesib + Pemetrexed; first compound 0.1 µM
  relative viability: 0.304
